Measurements from BigSolDB 2.1.

SMILES: CC(C)(C)c1cc(CCC(=O)NCCCCCCNC(=O)CCc2cc(C(C)(C)C)c(O)c(C(C)(C)C)c2)cc(C(C)(C)C)c1O
- solubility (mole fraction) (in acetone, 283.15 K): 0.00214
- solubility (mole fraction) (in acetone, 288.15 K): 0.00257
- solubility (mole fraction) (in acetone, 293.15 K): 0.00297
- solubility (mole fraction) (in acetone, 298.15 K): 0.00328
- solubility (mole fraction) (in acetone, 303.15 K): 0.00419
- solubility (mole fraction) (in acetone, 308.15 K): 0.00585
- solubility (mole fraction) (in acetone, 313.15 K): 0.00747
- solubility (mole fraction) (in acetone, 318.15 K): 0.01
- solubility (mole fraction) (in acetone, 323.15 K): 0.0152
- solubility (mole fraction) (in ethanol, 283.15 K): 0.00775
- solubility (mole fraction) (in ethanol, 288.15 K): 0.00841
- solubility (mole fraction) (in ethanol, 293.15 K): 0.00982
- solubility (mole fraction) (in ethanol, 298.15 K): 0.011
- solubility (mole fraction) (in ethanol, 303.15 K): 0.0126
- solubility (mole fraction) (in ethanol, 308.15 K): 0.0148
- solubility (mole fraction) (in ethanol, 313.15 K): 0.0178
- solubility (mole fraction) (in ethanol, 318.15 K): 0.0218
- solubility (mole fraction) (in ethanol, 323.15 K): 0.0264
- solubility (mole fraction) (in ethyl acetate, 283.15 K): 0.000614
- solubility (mole fraction) (in ethyl acetate, 288.15 K): 0.000852
- solubility (mole fraction) (in ethyl acetate, 293.15 K): 0.00109
- solubility (mole fraction) (in ethyl acetate, 298.15 K): 0.00123
- solubility (mole fraction) (in ethyl acetate, 303.15 K): 0.00155
- solubility (mole fraction) (in ethyl acetate, 308.15 K): 0.00192
- solubility (mole fraction) (in ethyl acetate, 313.15 K): 0.00258
- solubility (mole fraction) (in ethyl acetate, 318.15 K): 0.00376
- solubility (mole fraction) (in ethyl acetate, 323.15 K): 0.00527
- solubility (mole fraction) (in ethyl formate, 283.15 K): 0.00151
- solubility (mole fraction) (in ethyl formate, 288.15 K): 0.00205
- solubility (mole fraction) (in ethyl formate, 293.15 K): 0.00207
- solubility (mole fraction) (in ethyl formate, 298.15 K): 0.00254
- solubility (mole fraction) (in ethyl formate, 303.15 K): 0.00309
- solubility (mole fraction) (in ethyl formate, 308.15 K): 0.00406
- solubility (mole fraction) (in ethyl formate, 313.15 K): 0.00501
- solubility (mole fraction) (in ethyl formate, 318.15 K): 0.00622
- solubility (mole fraction) (in ethyl formate, 323.15 K): 0.00879
- solubility (mole fraction) (in isopropanol, 283.15 K): 0.00326
- solubility (mole fraction) (in isopropanol, 288.15 K): 0.00345
- solubility (mole fraction) (in isopropanol, 293.15 K): 0.004
- solubility (mole fraction) (in isopropanol, 298.15 K): 0.00459
- solubility (mole fraction) (in isopropanol, 303.15 K): 0.00552
- solubility (mole fraction) (in isopropanol, 308.15 K): 0.00688
- solubility (mole fraction) (in isopropanol, 313.15 K): 0.00872
- solubility (mole fraction) (in isopropanol, 318.15 K): 0.0107
- solubility (mole fraction) (in isopropanol, 323.15 K): 0.0129
- solubility (mole fraction) (in methanol, 283.15 K): 0.00197
- solubility (mole fraction) (in methanol, 288.15 K): 0.0023
- solubility (mole fraction) (in methanol, 293.15 K): 0.00263
- solubility (mole fraction) (in methanol, 298.15 K): 0.0032
- solubility (mole fraction) (in methanol, 303.15 K): 0.00388
- solubility (mole fraction) (in methanol, 308.15 K): 0.00506
- solubility (mole fraction) (in methanol, 313.15 K): 0.00666
- solubility (mole fraction) (in methanol, 318.15 K): 0.00874
- solubility (mole fraction) (in methanol, 323.15 K): 0.012
- solubility (mole fraction) (in methyl acetate, 283.15 K): 0.000498
- solubility (mole fraction) (in methyl acetate, 288.15 K): 0.000804
- solubility (mole fraction) (in methyl acetate, 293.15 K): 0.000846
- solubility (mole fraction) (in methyl acetate, 298.15 K): 0.00107
- solubility (mole fraction) (in methyl acetate, 303.15 K): 0.00137
- solubility (mole fraction) (in methyl acetate, 308.15 K): 0.00185
- solubility (mole fraction) (in methyl acetate, 313.15 K): 0.00239
- solubility (mole fraction) (in methyl acetate, 318.15 K): 0.00359
- solubility (mole fraction) (in methyl acetate, 323.15 K): 0.00538
- solubility (mole fraction) (in n-propanol, 283.15 K): 0.00711
- solubility (mole fraction) (in n-propanol, 288.15 K): 0.00807
- solubility (mole fraction) (in n-propanol, 293.15 K): 0.00974
- solubility (mole fraction) (in n-propanol, 298.15 K): 0.0116
- solubility (mole fraction) (in n-propanol, 303.15 K): 0.0128
- solubility (mole fraction) (in n-propanol, 308.15 K): 0.0153
- solubility (mole fraction) (in n-propanol, 313.15 K): 0.0183
- solubility (mole fraction) (in n-propanol, 318.15 K): 0.0223
- solubility (mole fraction) (in n-propanol, 323.15 K): 0.0254
